Consider 5 cell lines from the supplement of paper PMC10307832.

What all share (experiment): relative viability (nuclei count vs DMSO), 5 days (fraction); higher = more cells survive
Compound in experiment [1]: O=C(NC1CCNCC1)c1n[nH]cc1NC(=O)c1c(Cl)cccc1Cl [AT-7519] + CC(C)C[C@H](NC(=O)[C@H](Cc1ccccc1)NC(=O)c1cnccn1)B(O)O [Bortezomib] (partner 0.002 µM)
The essentials: (§1)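 After 5 days of treatment, lung cancer cells in 1536-well plates were fixed and stained in a single step (final 0.05% Triton X-100, 1% formaldehyde, 1 ug/ml Hoechst) and their nuclei counted on 4× images. Treatment had been applied by pin tool the day after seeding as one drug alone or as a fixed anchor-drug dose with five library-drug doses (not always all listed) in √10 steps. Relative viability is the nuclei count of treated wells divided by that of vehicle wells, and values are medians of duplicate plates.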

Compound in experiment [2]: O=C(NC1CCNCC1)c1n[nH]cc1NC(=O)c1c(Cl)cccc1Cl [AT-7519] + Cc1cc(Nc2cc(N3CCN(C)CC3)nc(Sc3ccc(NC(=O)C4CC4)cc3)n2)n[nH]1 [Tozasertib] (partner 0.1 µM)
The gist of the method: as §1

Compound in experiment [3]: O=C(NC1CCNCC1)c1n[nH]cc1NC(=O)c1c(Cl)cccc1Cl [AT-7519] + Nc1nc2[nH]cc(CCc3ccc(C(=O)N[C@@H](CCC(=O)O)C(=O)O)cc3)c2c(=O)[nH]1 [Pemetrexed] (partner 0.2 µM)
The gist of the method: as §1

Compound in experiment [4]: C1=CC2=C(C=C(C(=C2N=C1)O)N=NC3=CC4=C(C=C3)C=C(C=C4)S(=O)(=O)O)S(=O)(=O)O + Cc1nc(Nc2ncc(C(=O)Nc3c(C)cccc3Cl)s2)cc(N2CCN(CCO)CC2)n1 [Dasatinib] (partner 0.075 µM)
The essentials: as §1

For the cell line HCC-44, the relative viability in experiment [1] (first compound 0.01 µM) was determined as 0.752; in experiment [1] (first compound 0.03162 µM), 1.02; in experiment [1] (first compound 0.3162 µM), 1.01; in experiment [1] (first compound 1 µM), 0.979; in experiment [2] (first compound 0.01 µM), 1.14; in experiment [2] (first compound 0.03162 µM), 0.809. The relative viability came to 0.303 in experiment [2] (first compound 0.3162 µM); 0.231 in experiment [2] (first compound 1 µM); 0.622 in experiment [3] (first compound 0.01 µM); 0.696 in experiment [3] (first compound 0.03162 µM); 0.65 in experiment [3] (first compound 0.3162 µM); 0.703 in experiment [3] (first compound 1 µM).
On to HCC-78, for which the relative viability in experiment [4] (first compound 0.08 µM) stood at 0.404; in experiment [4] (first compound 0.253 µM), 0.337; in experiment [4] (first compound 0.8 µM), 0.426; in experiment [4] (first compound 2.53 µM), 0.352; in experiment [4] (first compound 8 µM), 0.394; in experiment [1] (first compound 0.01 µM), 0.479. Further, the relative viability is 0.38 in experiment [1] (first compound 0.03162 µM); 0.6 in experiment [1] (first compound 0.3162 µM); 0.516 in experiment [1] (first compound 1 µM); 0.631 in experiment [2] (first compound 0.01 µM); 0.451 in experiment [2] (first compound 0.03162 µM); 0.49 in experiment [2] (first compound 0.3162 µM). Further, the relative viability came to 0.326 in experiment [2] (first compound 1 µM); 0.916 in experiment [3] (first compound 0.01 µM); 0.885 in experiment [3] (first compound 0.03162 µM); 0.88 in experiment [3] (first compound 0.3162 µM); 0.884 in experiment [3] (first compound 1 µM).
As to HCC-366, the relative viability is 0.765 in experiment [4] (first compound 0.08 µM); 0.661 in experiment [4] (first compound 0.253 µM); 0.654 in experiment [4] (first compound 0.8 µM); 0.649 in experiment [4] (first compound 2.53 µM); 0.637 in experiment [4] (first compound 8 µM); 1.26 in experiment [1] (first compound 0.01 µM). Further, the relative viability was determined as 0.864 in experiment [1] (first compound 0.03162 µM); 1.07 in experiment [1] (first compound 0.3162 µM); 0.442 in experiment [1] (first compound 1 µM); 0.0905 in experiment [2] (first compound 0.01 µM); 0.186 in experiment [2] (first compound 0.03162 µM); 0.119 in experiment [2] (first compound 0.3162 µM). Moreover, the relative viability came out at 0.0621 in experiment [2] (first compound 1 µM); 0.178 in experiment [3] (first compound 0.01 µM); 0.162 in experiment [3] (first compound 0.03162 µM); 0.185 in experiment [3] (first compound 0.3162 µM); 0.216 in experiment [3] (first compound 1 µM).
HCC-827: the relative viability in experiment [4] (first compound 0.08 µM) is 0.306; in experiment [4] (first compound 0.253 µM), 0.294; in experiment [4] (first compound 0.8 µM) it was 0.244; in experiment [4] (first compound 2.53 µM), 0.261; in experiment [4] (first compound 8 µM), 0.272; in experiment [1] (first compound 0.01 µM) it was 1.1. For the same cell line, the relative viability in experiment [1] (first compound 0.03162 µM) turned out to be 1.1; in experiment [1] (first compound 0.3162 µM) it was 1.05; in experiment [1] (first compound 1 µM), 1.06; in experiment [2] (first compound 0.01 µM), 0.399; in experiment [2] (first compound 0.03162 µM), 0.403; in experiment [2] (first compound 0.3162 µM) it was 0.447. Also, the relative viability in experiment [2] (first compound 1 µM) worked out at 0.645; in experiment [3] (first compound 0.01 µM), 0.301; in experiment [3] (first compound 0.03162 µM) it was 0.247; in experiment [3] (first compound 0.3162 µM), 0.276; in experiment [3] (first compound 1 µM), 0.243.
For the cell line HOP-62, the relative viability in experiment [4] (first compound 0.08 µM) amounted to 0.69; in experiment [4] (first compound 0.253 µM), 0.657; in experiment [4] (first compound 0.8 µM), 0.676; in experiment [4] (first compound 2.53 µM) it was 0.588; in experiment [4] (first compound 8 µM), 0.653; in experiment [1] (first compound 0.01 µM), 0.723. The relative viability in experiment [1] (first compound 0.03162 µM) came out at 0.825; in experiment [1] (first compound 0.3162 µM), 0.827; in experiment [1] (first compound 1 µM) it was 0.718; in experiment [2] (first compound 0.01 µM), 0.344; in experiment [2] (first compound 0.03162 µM) it was 0.279; in experiment [2] (first compound 0.3162 µM) it was 0.353. In addition, the relative viability worked out at 0.399 in experiment [2] (first compound 1 µM); 0.359 in experiment [3] (first compound 0.01 µM); 0.335 in experiment [3] (first compound 0.03162 µM); 0.302 in experiment [3] (first compound 0.3162 µM); 0.328 in experiment [3] (first compound 1 µM).
